Reference: patent US20240101570A1 (AMGEN INC., priority 2020, published 2024)

How the values were obtained:
HCT116 WT cells = experiment: HCT116 WT cell proliferation / viability (CellTiter-Glo, 6 days); format: cell-based; details: Homo sapiens, HCT-116, 144 h, HCT116 WT cells, 6 days, CellTiter-Glo; read-out: HCT-116 WT IC50
How it was run: (§1)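 Viability read by CellTiter-Glo after 6-day compound exposure of MTAP-null and wild-type HCT116 cells grown in RPMI 1640 with 10% FBS. Dosing used 1:3 steps from 1 or 10 μM (8-9 points) or 1:2 steps from 10 or 50 μM (22 points); IC50 taken where fitted curve crosses 50% of control.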

HCT116 MTAP null cells = experiment: HCT116 MTAP null cell proliferation / viability (CellTiter-Glo, 6 days); format: cell-based; details: HCT116-MTAP null, 144 h, HCT116 MTAP null cells, 6 days, CellTiter-Glo; read-out: HCT-116 MTAP null IC50
How it was run: as §1

## CN(Cc1ccc(-c2cnn(C(F)(F)F)c2)cn1)C(=O)c1cc2c(cc1F)nc(N)c1cnn(C)c12 [Example 789, 4-amino-7-fluoro-N,1-dimethyl-N-((5-(1-(trifluoromethyl)-1H-pyrazol-4-yl)-2-pyridinyl)methyl)-1H-pyrazolo[4,3-c]quinoline-8-carboxamide]
HCT116 WT cells
  IC50: 6930 nM
HCT116 MTAP null cells
  IC50: 83 nM

## Nc1nc2ccc(C(=O)N(Cc3ccc(C(F)(F)F)cn3)CC(F)(F)F)cc2c2c1COC2 [Example 483, 4-amino-N-(2,2,2-trifluoroethyl)-N-((5-(trifluoromethyl)-2-pyridinyl)methyl)-1,3-dihydrofuro[3,4-c]quinoline-8-carboxamide]
HCT116 WT cells
  IC50: 7290 nM
HCT116 MTAP null cells
  IC50: 458 nM

## C[C@@H](c1ccc(C(F)(F)C(F)(F)F)cc1)N(C)C(=O)c1cc2c(cc1F)nc(N)c1cnn(C)c12 [Example 787, 4-amino-7-fluoro-N,1-dimethyl-N-((1S)-1-(4-(pentafluoroethyl)phenyl)ethyl)-1H-pyrazolo[4,3-c]quinoline-8-carboxamide]
HCT116 WT cells
  IC50: 8970 nM
HCT116 MTAP null cells
  IC50: 865 nM

## CCN(Cc1ccc(C(F)(F)F)cn1)C(=O)c1ccc2nc(N)c3c(cnn3C)c2c1 [Example 422, 4-amino-N-ethyl-3-methyl-N-((5-(trifluoromethyl)-2-pyridinyl)methyl)-3H-pyrazolo[3,4-c]quinoline-8-carboxamide]
HCT116 WT cells
  IC50: 10700 nM
HCT116 MTAP null cells
  IC50: 6740 nM

## C[C@H]1OCc2c1c(N)nc1cnc(C(=O)N(Cc3ccc(C#N)cn3)C3CC3)cc21 [Example 316, (3R)-4-amino-N-((5-cyano-2-pyridinyl)methyl)-N-cyclopropyl-3-methyl-1,3-dihydrofuro[3,4-c][1,7]naphthyridine-8-carboxamide]
HCT116 WT cells
  IC50: 23600 nM
HCT116 MTAP null cells
  IC50: 570 nM

## Nc1nc2cc(F)c(C(=O)N(Cc3ccc(OC(F)F)nn3)C3CCC3)cc2c2c1COC2 [Example 509, 4-amino-N-cyclobutyl-N-((6-(difluoromethoxy)-3-pyridazinyl)methyl)-7-fluoro-1,3-dihydrofuro[3,4-c]quinoline-8-carboxamide]
HCT116 WT cells
  IC50: 878 nM
HCT116 MTAP null cells
  IC50: 40 nM

## Nc1nc2cc(Cl)c(C(=O)N(Cc3ccc(C4CC4)cn3)C3CC3)cc2c2c1COC2 [Example 480, 4-amino-7-chloro-N-cyclopropyl-N-((5-cyclopropyl-2-pyridinyl)methyl)-1,3-dihydrofuro[3,4-c]quinoline-8-carboxamide]
HCT116 WT cells
  IC50: 1450 nM
HCT116 MTAP null cells
  IC50: 272 nM

## C[C@H](c1ncn(C)n1)N(Cc1ccc(C(F)F)cn1)C(=O)c1cc2c3c(c(N)nc2cn1)COC3 [Example 667, 4-amino-N-((5-(difluoromethyl)-2-pyridinyl)methyl)-N-((1R)-1-(1-methyl-1H-1,2,4-triazol-3-yl)ethyl)-1,3-dihydrofuro[3,4-c][1,7]naphthyridine-8-carboxamide]
HCT116 WT cells
  IC50: 7130 nM
HCT116 MTAP null cells
  IC50: 929 nM

## C[C@H](CF)N(Cc1ccc(C#N)cn1)C(=O)c1cc2c3c(c(N)nc2cn1)COC3 (single isomer, unassigned) [Example 820]
HCT116 WT cells
  IC50: > 10000 nM
HCT116 MTAP null cells
  IC50: 7070 nM

## COCC(C)N(Cc1ccc(C(F)(F)F)nn1)C(=O)c1cc2c3c(c(N)nc2cc1F)COC3 (racemic) [Example 488, 4-amino-7-fluoro-N-((2R)-1-methoxy-2-propanyl)-N-((6-(trifluoromethyl)-3-pyridazinyl)methyl)-1,3-dihydrofuro[3,4-c]quinoline-8-carboxamide and 4-amino-7-fluoro-N-((2S)-1-methoxy-2-propanyl)-N-((6-(trifluoromethyl)-3-pyridazinyl)methyl)-1,3-dihydrofuro[3,4-c]quinoline-8-carboxamide]
HCT116 WT cells
  IC50: 696 nM
HCT116 MTAP null cells
  IC50: 49 nM

## COc1ccc(CN(C(=O)c2cc3c4c(c(N)nc3cn2)COC4)C(C)C)nc1Cl [Example 683, 4-amino-N-((6-chloro-5-methoxy-2-pyridinyl)methyl)-N-(2-propanyl)-1,3-dihydrofuro[3,4-c][1,7]naphthyridine-8-carboxamide]
HCT116 WT cells
  IC50: > 10000 nM
HCT116 MTAP null cells
  IC50: 235 nM

## CC(C)N(Cc1ccc(Cl)cn1)C(=O)c1ccc2nc(N)c3c(c2c1)CO[C@@H]3C [Example 423, (3R)-4-amino-N-((5-chloro-2-pyridinyl)methyl)-3-methyl-N-(2-propanyl)-1,3-dihydrofuro[3,4-c]quinoline-8-carboxamide]
HCT116 WT cells
  IC50: 3980 nM
HCT116 MTAP null cells
  IC50: 64 nM

## C[C@@H]1OCc2c1c(N)nc1cnc(C(=O)N(C3CC3)[C@H](C)c3ccc(C(F)(F)F)cn3)cc21 (single isomer, unassigned) [Example 590]
HCT116 WT cells
  IC50: > 50000 nM
HCT116 MTAP null cells
  IC50: 2230 nM

## Nc1nc2cc(Cl)c(C(=O)N(Cc3ccc(C(F)(F)F)nn3)C3CCC3)cc2c2c1COC2 [Example 505, 4-amino-7-chloro-N-cyclobutyl-N-((6-(trifluoromethyl)-3-pyridazinyl)methyl)-1,3-dihydrofuro[3,4-c]quinoline-8-carboxamide]
HCT116 WT cells
  IC50: 662 nM
HCT116 MTAP null cells
  IC50: 22 nM

## C[C@H](c1ncccn1)N(Cc1ccc(C#N)cn1)C(=O)c1cc2c3c(c(N)nc2cc1F)COC3 [Example 436, 4-amino-N-((5-cyano-2-pyridinyl)methyl)-7-fluoro-N-((1R)-1-(2-pyrimidinyl)ethyl)-1,3-dihydrofuro[3,4-c]quinoline-8-carboxamide]
HCT116 WT cells
  IC50: 187 nM
HCT116 MTAP null cells
  IC50: 29 nM

## C[C@H](c1ccc(C(F)(F)F)nn1)N(C)C(=O)c1cc2c(cc1F)nc(N)c1cnn(C)c12 (single isomer, unassigned) [Example 605]
HCT116 WT cells
  IC50: 793 nM
HCT116 MTAP null cells
  IC50: 14 nM

## CCOc1ccc(CN(C(=O)c2cc3c4c(c(N)nc3cn2)COC4)[C@H](C)COC)nn1 [Example 388, 4-amino-N-((6-ethoxy-3-pyridazinyl)methyl)-N-((2R)-1-methoxy-2-propanyl)-1,3-dihydrofuro[3,4-c][1,7]naphthyridine-8-carboxamide]
HCT116 WT cells
  IC50: 1280 nM
HCT116 MTAP null cells
  IC50: 54 nM

## CCN(Cc1ccc(C(F)(F)F)cn1)C(=O)c1cc2c3c(c(N)nc2cc1F)COC3 [Example 419, 4-amino-N-ethyl-7-fluoro-N-((5-(trifluoromethyl)-2-pyridinyl)methyl)-1,3-dihydrofuro[3,4-c]quinoline-8-carboxamide]
HCT116 WT cells
  IC50: 3790 nM
HCT116 MTAP null cells
  IC50: 152 nM

## C[C@H]1OCc2c1c(N)nc1ccc(C(=O)N(Cc3ccc(C#N)cn3)C3CC3)cc21 [Example 355, (3R)-4-amino-N-((5-cyano-2-pyridinyl)methyl)-N-cyclopropyl-3-methyl-1,3-dihydrofuro[3,4-c]quinoline-8-carboxamide]
HCT116 WT cells
  IC50: 19000 nM
HCT116 MTAP null cells
  IC50: 171 nM

## CN(Cc1ccc(-c2cnn(C(F)(F)F)c2)nn1)C(=O)c1ccc2nc(N)c3cnn(C)c3c2c1 [Example 529, 4-amino-N,1-dimethyl-N-((6-(1-(trifluoromethyl)-1H-pyrazol-4-yl)-3-pyridazinyl)methyl)-1H-pyrazolo[4,3-c]quinoline-8-carboxamide]
HCT116 WT cells
  IC50: 28500 nM
HCT116 MTAP null cells
  IC50: 887 nM

## C[C@H](c1ccc(C(F)(F)F)cc1)N(C)C(=O)c1cc2c(cn1)nc(N)c1cnn(C)c12 (single isomer, unassigned) [Example 598]
HCT116 WT cells
  IC50: 415 nM
HCT116 MTAP null cells
  IC50: 8 nM

## CCN(C(=O)c1cc2c3c(c(N)nc2cn1)COC3)[C@@H](C)c1ccc(C(F)(F)F)cn1 (single isomer, unassigned) [Example 824]
HCT116 WT cells
  IC50: 26300 nM
HCT116 MTAP null cells
  IC50: 2390 nM

## C[C@H](c1ncc(C(F)(F)F)cc1F)N(C)C(=O)c1cc2c3c(c(N)nc2cc1F)COC3 (single isomer, unassigned) [Example 595]
HCT116 WT cells
  IC50: 676 nM
HCT116 MTAP null cells
  IC50: 10 nM
